Here are results for five compounds from patent publication US20090247472A1, “TYPE 1, 4-NAPHTOQUINONE COMPOUNDS, COMPOSITIONS COMPRISING THEM AND USE OF THESE COMPOUNDS AS ANTI-CANCER AGENTS” (FLUOFARMA, priority 2006, published 2009).

Common to all, as to format: cell-based
The test system of test [1] is cells. The test can be described thus: Sub-G1 apoptosis test (DNA fragmentation, fluorescent DNA intercalator), Example 60. The note with it: for Activity (sub-Gl): apoptosis, DNA fragmentation by fluorescence; for pro-apoptotic activity (in words): conclusion from the tests of Example 60. How it is done:
The biological tests on activity (Sub-G1) relate to measurement of apoptosis. For this purpose, a fluorescent tracer, a DNA intercalator, makes it possible to display the fragmentation of the DNA. This fragmentation of the DNA results from the induction of the apoptotic phenomenon in the cells. The cells are incubated in the presence of various concentrations of the compounds presented above. The measurement of the apoptosis in the cells is monitored by measuring the fluorescence, thus making it possible to determine the activity of the compounds in […]. The activity tests (sub-G1) on certain compounds are presented below.

Test [2] relates to cells. The test can be described thus: Apoptosis (sub-G1) by multiplexed flow cytometry, Example 61. How it is done: (§1) The activities are measured by multiplexed flow cytometry tests, by coupling the measurement of apoptosis and cell proliferation. The cell proliferation is measured by monitoring the dilution of a specific fluorescent tracer during the cell divisions: • the cells are incubated in the presence of several concentrations of compounds, then • the measurements of apoptosis and cell proliferation are made simultaneously by the flow cytometry technique; specimen dose/response curves for the action of the compounds on apoptosis and on cell proliferation are obtained.

The subject of test [3] is cells. The test can be described thus: Cell proliferation by multiplexed flow cytometry (dilution of a fluorescent tracer), Example 61. How it is done: as §1
Background: A flow cytometer gives signals particle by particle.

Where [4] appears, read: conclusion from the tests of Example 61.

Structures are written as SMILES.

With `CC1=C(CNC(=O)C(C)N)C(=O)c2ccccc2C1=O.Cl` [Example 17, 2-methyl-3-(L-alaninyl-aminomethyl)-1,4-naphthoquinone chlorhydrate], in the test with cells [1], the “Activity (sub-Gl)” value is 13.3 µM and the “pro-apoptotic activity (in words)” value is recorded as “pro-apoptotic activity”.
On to `CC1=C(CCNC(=O)CN)C(=O)c2ccccc2C1=O.Cl` [Example 26, 2-methyl-3-(glycinyl-aminoethyl)-1,4-naphthoquinone chlorohydrate], for which, in the test with cells [2] (apoptosis, multiplexed flow cytometry), the “Activity (sub-Gl)” value was found to be 11.8 µM. In the test with cells [2] (setting [4]), the “pro-apoptotic activity (in words)” value was “pro-apoptotic”. Besides, the “Activity (prolif at 24 h)” value in the test on cells [3] (cell proliferation at 24 h, flow cytometry) was found to be 12.3 µM. Also, the “anti-proliferative activity (in words)” value with cells [3] (setting [4]) is “anti-proliferative activity”.
Turning to `CC1=C(CNC(=O)C(N)C(C)O)C(=O)c2ccccc2C1=O` [Example 20, 2-methyl-3-(L-threoninyl-aminomethyl)-1,4-naphthoquinone chlorohydrate], in the test with cells [1], the “Activity (sub-Gl)” value came out at 12.2 µM and the “pro-apoptotic activity (in words)” value is listed as “pro-apoptotic activity”.
For `CC1=C(CNC(=O)C(N)C(C)C)C(=O)c2ccccc2C1=O.Cl` [Example 19, 2-methyl-3-(D-valinyl-aminomethyl)-1,4-naphthoquinone chlorhydrate], in that order: 12 µM and “pro-apoptotic activity”.
The corresponding values for `CC1=C(CNC(=O)C(N)CO)C(=O)c2ccccc2C1=O.Cl` [Example 18, 2-methyl-3-(L-serinyl-aminomethyl)-1,4-naphthoquinone chlorhydrate] are 11.8 µM and “pro-apoptotic activity”.
